How the values were obtained:
Mu-type opioid receptor [1] = molecular target: T1, Mu-type opioid receptor (Homo sapiens, UniProt P35372); assay: Agonist activity against mu opioid receptor expressed in CHO cells assessed as stimulation of [35S]-GTPgammaS binding; type: functional, cell-based
[2] = Selectivity ratio of Ki for kappa opioid receptor to Ki for mu opioid receptor
[3] = Selectivity ratio of Ki for delta opioid receptor to Ki for mu opioid receptor
[4] = molecular target: Delta-type opioid receptor (Homo sapiens, UniProt P41143); assay: Displacement of [3H]-NTI from delta opioid receptor expressed in CHO cells after 1 hr; type: cell-based
Delta-type opioid receptor, sequence (P41143 whole entry): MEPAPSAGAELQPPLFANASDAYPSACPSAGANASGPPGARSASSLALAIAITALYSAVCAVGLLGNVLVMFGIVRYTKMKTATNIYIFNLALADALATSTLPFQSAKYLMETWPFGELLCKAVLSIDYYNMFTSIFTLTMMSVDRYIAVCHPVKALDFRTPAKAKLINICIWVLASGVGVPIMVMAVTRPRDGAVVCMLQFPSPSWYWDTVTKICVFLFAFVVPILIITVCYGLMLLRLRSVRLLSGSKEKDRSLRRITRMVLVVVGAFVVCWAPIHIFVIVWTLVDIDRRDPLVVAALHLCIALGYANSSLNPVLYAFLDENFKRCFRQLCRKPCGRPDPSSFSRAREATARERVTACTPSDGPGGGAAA

Mu-type opioid receptor [5] = molecular target: T1, Mu-type opioid receptor; assay: Displacement of [3H]naloxone from mu opioid receptor expressed in CHO cells after 1 hr; type: cell-based
[6] = molecular target: Kappa-type opioid receptor (Homo sapiens, UniProt P41145); assay: Displacement of [3H]-norBNI from kappa opioid receptor expressed in CHO cells after 1 hr; type: cell-based
Kappa-type opioid receptor, sequence (P41145 whole entry): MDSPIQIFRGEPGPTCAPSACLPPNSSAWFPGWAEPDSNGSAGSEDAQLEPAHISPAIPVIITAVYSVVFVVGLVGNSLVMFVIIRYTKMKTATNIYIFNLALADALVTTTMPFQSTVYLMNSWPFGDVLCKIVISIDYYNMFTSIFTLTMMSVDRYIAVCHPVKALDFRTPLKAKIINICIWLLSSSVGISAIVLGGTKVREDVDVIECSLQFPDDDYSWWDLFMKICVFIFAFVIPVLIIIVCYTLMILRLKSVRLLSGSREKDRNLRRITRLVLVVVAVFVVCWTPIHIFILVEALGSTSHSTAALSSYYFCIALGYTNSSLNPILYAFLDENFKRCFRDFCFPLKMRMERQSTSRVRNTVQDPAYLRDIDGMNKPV

Mu-type opioid receptor [7] = molecular target: T1, Mu-type opioid receptor; assay: Agonist activity against mu opioid receptor expressed in CHO cells assessed as stimulation of [35S]-GTPgammaS binding relative to DAMGO; type: functional, cell-based
Mu-type opioid receptor [8] = molecular target: T1, Mu-type opioid receptor; conditions: CHO; 100 nM
Description: Agonist activity against mu opioid receptor expressed in CHO cells assessed as stimulation of [35S]-GTPgammaS binding at 100 nM relative to DAMGO

T1 sequence (P35372 whole entry): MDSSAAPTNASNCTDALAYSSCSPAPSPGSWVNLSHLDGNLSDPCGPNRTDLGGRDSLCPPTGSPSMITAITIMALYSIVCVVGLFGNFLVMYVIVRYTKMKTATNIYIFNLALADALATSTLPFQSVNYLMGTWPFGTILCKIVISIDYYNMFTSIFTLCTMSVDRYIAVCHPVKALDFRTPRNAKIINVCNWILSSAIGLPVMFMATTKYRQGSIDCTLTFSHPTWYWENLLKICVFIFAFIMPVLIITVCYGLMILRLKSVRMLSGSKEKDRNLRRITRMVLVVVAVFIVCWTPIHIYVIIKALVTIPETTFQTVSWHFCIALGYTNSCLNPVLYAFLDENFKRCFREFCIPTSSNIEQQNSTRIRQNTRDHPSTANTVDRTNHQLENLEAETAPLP

In the case of O=C(N[C@@H]1CC[C@@]2(O)[C@H]3Cc4ccc(O)c5c4[C@@]2(CCN3CC2CC2)[C@H]1O5)c1ccnc(Cl)c1, the EC50 (Mu-type opioid receptor [1]) is reported as 0.83 nM, the Ratio Ki [2] is reported as 1.5 and the Ratio Ki [3] is reported as 6110. The Ki [4] was 602 nM, the Ki (Mu-type opioid receptor [5]) was 0.1 nM and the Ki [6] was 0.15 nM. It also gave an Emax (Mu-type opioid receptor [7]) of 58.2%.
O=C(N[C@@H]1CC[C@@]2(O)[C@H]3Cc4ccc(O)c5c4[C@@]2(CCN3CC2CC2)[C@H]1O5)c1ccnc(Br)c1 showed an EC50 (Mu-type opioid receptor [1]) of 1.19 nM, a Ratio Ki [2] of 0.3 and a Ratio Ki [3] of 276. It also gave a Ki [4] of 174 nM, a Ki (Mu-type opioid receptor [5]) of 0.63 nM and a Ki [6] of 0.18 nM. It also gave an Emax (Mu-type opioid receptor [7]) of 50.8%.
Work on O=C(CNC(=O)c1ccncc1)N[C@@H]1CC[C@@]2(O)[C@H]3Cc4ccc(O)c5c4[C@@]2(CCN3CC2CC2)[C@H]1O5 yielded an EC50 (Mu-type opioid receptor [1]) of 2.84 nM, a Ki [4] of 526 nM and a Ki (Mu-type opioid receptor [5]) of 0.73 nM. The Ki [6] was 203 nM and the Emax (Mu-type opioid receptor [7]) was 22.6%.
Cc1cnccc1C(=O)N[C@@H]1CC[C@@]2(O)[C@H]3Cc4ccc(O)c5c4[C@@]2(CCN3CC2CC2)[C@H]1O5 gave an EC50 (Mu-type opioid receptor [1]) of 1.52 nM, a Ratio Ki [2] of 166 and a Ratio Ki [3] of 470. For the same molecule, the Ki [4] was 274 nM, the Ki (Mu-type opioid receptor [5]) was 0.58 nM and the Ki [6] was 96.7 nM. For the same molecule, the Emax (Mu-type opioid receptor [7]) was 30.6%.
In the case of O=C(CCc1ccncc1)N[C@@H]1CC[C@@]2(O)[C@H]3Cc4ccc(O)c5c4[C@@]2(CCN3CC2CC2)[C@H]1O5, the EC50 (Mu-type opioid receptor [1]) is reported as 1.46 nM, the Ratio Ki [2] is reported as 2.9 and the Ratio Ki [3] is reported as 516. The Ki [4] was 294 nM, the Ki (Mu-type opioid receptor [5]) was 0.57 nM and the Ki [6] was 1.65 nM. For the same molecule, the Emax (Mu-type opioid receptor [7]) was 22.6%.
For C[C@@H](O)[C@H](NC(=O)[C@H]1NC(=O)[C@H]([C@@H](C)O)NC(=O)[C@H](CCCNC(=N)N)NC(=O)[C@@H](Cc2c[nH]c3ccccc23)NC(=O)[C@H](Cc2ccc(O)cc2)NC(=O)[C@@H](NC(=O)[C@H]2Cc3ccccc3CN2)CSSC1(C)C)C(N)=O, the Emax (Mu-type opioid receptor [8]) was 1.99%.
In the case of O=C(Cc1ccncc1)N[C@@H]1CC[C@@]2(O)[C@H]3Cc4ccc(O)c5c4[C@@]2(CCN3CC2CC2)[C@H]1O5, the EC50 (Mu-type opioid receptor [1]) is reported as 2.32 nM, the Ratio Ki [2] is reported as 10.6 and the Ratio Ki [3] is reported as 1020. For the same molecule, the Ki [4] was 866 nM, the Ki (Mu-type opioid receptor [5]) was 0.85 nM and the Ki [6] was 9.01 nM. For the same molecule, the Emax (Mu-type opioid receptor [7]) was 32.8%.
O=C(N[C@@H]1CC[C@@]2(O)[C@H]3Cc4ccc(O)c5c4[C@@]2(CCN3CC2CC2)[C@H]1O5)c1ccncc1Br showed an EC50 (Mu-type opioid receptor [1]) of 1.31 nM, a Ratio Ki [2] of 6.3 and a Ratio Ki [3] of 285. It also gave a Ki [4] of 128 nM, a Ki (Mu-type opioid receptor [5]) of 0.45 nM and a Ki [6] of 2.83 nM. For the same molecule, the Emax (Mu-type opioid receptor [7]) was 23.2%.
For Cc1cc(C(=O)N[C@@H]2CC[C@@]3(O)[C@H]4Cc5ccc(O)c6c5[C@@]3(CCN4CC3CC3)[C@H]2O6)ccn1, the EC50 (Mu-type opioid receptor [1]) was 1.13 nM, the Ratio Ki [2] was 1.5 and the Ratio Ki [3] was 232. The Ki [4] was 90.1 nM, the Ki (Mu-type opioid receptor [5]) was 0.39 nM and the Ki [6] was 0.58 nM. It also gave an Emax (Mu-type opioid receptor [7]) of 43.3%.
In the case of O=C(N[C@@H]1CC[C@@]2(O)[C@H]3Cc4ccc(O)c5c4[C@@]2(CCN3CC2CC2)[C@H]1O5)c1ccncc1Cl, the EC50 (Mu-type opioid receptor [1]) is reported as 2.32 nM, the Ratio Ki [2] is reported as 29.6 and the Ratio Ki [3] is reported as 746. The Ki [4] was 502 nM, the Ki (Mu-type opioid receptor [5]) was 0.67 nM and the Ki [6] was 19.9 nM. For the same molecule, the Emax (Mu-type opioid receptor [7]) was 24.9%.
In the case of CN1CCC(C(=O)N[C@@H]2CC[C@@]3(O)[C@H]4Cc5ccc(O)c6c5[C@@]3(CCN4CC3CC3)[C@H]2O6)CC1, the EC50 (Mu-type opioid receptor [1]) is reported as 5.08 nM, the Ratio Ki [2] is reported as 7.5 and the Ratio Ki [3] is reported as 2970. It also gave a Ki [4] of 2590 nM, a Ki (Mu-type opioid receptor [5]) of 0.87 nM and a Ki [6] of 6.49 nM. It also gave an Emax (Mu-type opioid receptor [7]) of 37.2%.
